Where two headings read alike, the source gives them in different places.
How the values were obtained:
[1] = target: T1, PKMYT1 (Homo sapiens, UniProt Q99640); assay: ADP-Glo PKMYT1 ATP-depletion assay; settings: 50 nM PKMYT1, 13.3 nM CDK1, 88 μM ATP, 120 minutes at RT, read-out: Biochemical IC50
T1 construct: PKMYT1 (93 kD, full length, N-terminal GST tag from Signal Chem); GST (N); purchased Signal Chem
T1 sequence (Q99640 1-499): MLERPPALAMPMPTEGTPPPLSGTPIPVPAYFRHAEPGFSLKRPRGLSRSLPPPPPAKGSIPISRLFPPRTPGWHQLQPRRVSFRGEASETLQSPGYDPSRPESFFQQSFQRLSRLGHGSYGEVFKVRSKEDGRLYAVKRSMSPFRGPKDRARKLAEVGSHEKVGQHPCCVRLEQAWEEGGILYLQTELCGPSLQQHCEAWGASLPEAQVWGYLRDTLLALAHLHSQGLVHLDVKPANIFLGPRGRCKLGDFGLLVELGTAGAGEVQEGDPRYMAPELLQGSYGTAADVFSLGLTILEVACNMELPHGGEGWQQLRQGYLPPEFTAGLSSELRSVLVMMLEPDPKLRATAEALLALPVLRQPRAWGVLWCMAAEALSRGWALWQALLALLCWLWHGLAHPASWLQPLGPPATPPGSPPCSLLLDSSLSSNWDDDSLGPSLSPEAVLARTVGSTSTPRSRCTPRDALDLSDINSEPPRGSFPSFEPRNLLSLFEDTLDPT
Procedure: (§1) Biochemical IC50 values were determined via ADP-Glo™ assay. Cellular IC50 values were determined via AlphaLISA assay.
ADP-Glo™ PKMYT1 ATP-depletion assay. The activity of PKMYT1 is measured using a luciferase-luciferin based ATP detection reaction to quantify ATP depletion resulting from kinase-catalyzed phosphoryl transfer to CDK1 or autophosphorylation of PKMYT1. The ADP generated as a byproduct of the reaction is converted to ATP and used to drive a luciferase reaction. Test compounds were dissolved in DMSO and dispensed into Corning 3824 384-well plates prior to the experiment such that the final DMSO concentration was <10%. To the compounds was added 3 μL of PKMYT1 (93 kD, full length, N-terminal GST tag from Signal Chem). The reaction was started by the addition of 2 μL of CDK1 (58 kDa, full length, N-terminal GST tag from Signal Chem) and ATP in assay buffer (50 mM Hepes, 40 mM NaCl, 10 mM MgCl2, 1 mM DTT, 0.1 mg/mL BSA, 2.5 mM MnCl2). Final assay concentrations were 50 nM PKMYT1, 13.3 nM CDK1, and 88 μM ATP. Plates were centrifuged for 1 minute at 1000 RPM and incubated at RT for 120 minutes. After the incubation period, ADP-Glo™ reagent was added and the plates were incubated for another 40 minutes before finally adding the kinase detection reagent, 30 minutes after the addition, plates were placed on a PHERAstar® plate reader and read using the Luminescence Protocol, integration time at 0.5 seconds.

[2] = tested on: phosphorylation of CDK1 at Thr14 in HCC1806 cells; assay: Cell lysate AlphaLISA assay measuring inhibition of phosphorylation of CDK1 Thr14; format: cell-based; settings: compounds incubated 4 hours, AlphaLISA SureFire Ultra CDK1 Thr14, read-out: Cellular IC50
Procedure: as §1
Cell lysate AlphaLISA® assay measuring inhibition of phosphorvlation of CDK1 Thr14. Inhibition of phosphorylation of CDK1 at Thr14 was determined using AlphaLISAn SureFire® Ultra™ Kit from Perkin Elmer (ALSU-PCDK1-A10K). HCC1806 cells were seeded at 2K cells per well (50 μl/well) in 384-well plates (Corning 3570) and stored overnight at 37° C. and 5% CO2. The following day, the compounds dissolved in DMSO were introduced to the cells and incubated for 4 hours at 37° C. and 5% CO2. The cells were then washed with PBS using Blue® Washer and 10 μl of lysis buffer containing protease inhibitor was added. The plate was placed on an orbital shaker (at 4° C.) for 30 minutes and stored overnight at −80° C. for complete lysing. The next day, the plates were thawed at room temperature for at least 30 min. Reagents were prepared in a dimmed light setting (<100 lumens). The assay was run by first adding 5 μl of the acceptor mix (reaction buffer 1: reaction buffer 2:activation buffer:acceptor beads 47:47:4:2), covering the plate with foil, shaking for 2 minutes, and incubating at RT for 60 minutes. The donor mix (dilution buffer:donor beads 47:3) was then added at 5 μl per well, placed on the shaker for 2 minutes and incubated at RT for 60 minutes before reading the plates on a PHERAstar® plate reader. The results were normalized to DMSO (0% Inhibition) and 3 μM of reference compound.

IC50 [1] [nM] | IC50 ([2]; Homo sapiens, HCC1806, 4 h) [nM] | IC50 [2] [nM] | Compound
< 50 | < 50 | – | [2H]c1cc(C)c(-c2cc(C(N)=O)nc3c2c(C#N)cn3CC)c(C)c1O (atropisomer, axis not shown; (P)) [Compound 89, (P)-3-cyano-1-ethyl-4-(3-hydroxy-2,6-dimethylphenyl-4-d)-1H-pyrrolo[2,3-b]pyridine-6-carboxamide]
< 50 | < 50 | – | Cc1ccc(O)c(C)c1-c1cc(C(N)=O)nc2c1c(C#N)cn2CC(F)F (atropisomer, axis not shown; (P)) [Compound 93, (P)-3-cyano-1-(2,2-difluoroethyl)-4-(3-hydroxy-2,6-dimethylphenyl)-1H-pyrrolo[2,3-b]pyridine-6-carboxamide]
< 50 | < 50 | – | Cc1ccc(O)c(C)c1-c1c(N)c(C(N)=O)cc2c1nc(C(F)F)n2C(F)F (atropisomer, axis not shown; (P)) [Compound 94, (P)-6-amino-2,3-bis(difluoromethyl)-7-(3-hydroxy-2,6-dimethyl-phenyl)benzimidazole-5-carboxamide]
< 50 | < 50 | – | Cc1ccc(O)c(C)c1-c1c(N)c(C(N)=O)cc2c1nc(C(F)F)n2-c1ncccc1F (atropisomer, axis not shown; (P)) [Compound 95, (P)-6-amino-2-(difluoromethyl)-3-(3-fluoro-2-pyridyl)-7-(3-hydroxy-2,6-dimethyl-phenyl)benzimidazole-5-carboxamide]
50 to 500 | 1000 to 5000 | – | CCn1cc(-n2ccnc2)c2c(-c3c(C)ccc(O)c3C)cc(C(N)=O)nc21 (atropisomer, axis not shown; (P)) [Compound 97, (P)-1-ethyl-4-(3-hydroxy-2,6-dimethylphenyl)-3-(1H-imidazol-1-yl)-1H-pyrrolo[2,3-b]pyridine-6-carboxamide]
< 50 | < 50 | – | Cc1ccc(O)c(C)c1-c1c(N)c(C(N)=O)cc2c1nnn2C(F)F (atropisomer, axis not shown; (P)) [Compound 98, (P)-5-amino-1-(difluoromethyl)-4-(3-hydroxy-2,6-dimethylphenyl)-1H-benzo[d][1,2,3]triazole-6-carboxamide]
< 50 | < 50 | – | Cc1c(O)cccc1-c1c(N)c(C(N)=O)nc2c1c(C#N)cn2C (racemic) [Compound 4, 5-Amino-3-cyano-4-(3-hydroxy-2-methylphenyl)-1-methyl-1H-pyrrolo[2,3-b]pyridine-6-carboxamide]
< 50 | < 50 | – | Cc1ccc(O)c(C)c1-c1cc(C(N)=O)nc2c1c(C#N)cn2CC(F)(F)F (racemic) [Compound 23, 3-cyano-4-(3-hydroxy-2,6-dimethylphenyl)-1-(2,2,2-trifluoroethyl)pyrrolo[2,3-b]pyridine-6-carboxamide]
< 50 | 50 to 500 | – | Cc1ccc(O)c(C)c1-c1cc(C(N)=O)nc2c1c(C#N)c(C)n2C (racemic) [Compound 26, 3-cyano-4-(3-hydroxy-2,6-dimethylphenyl)-1,2-dimethyl-pyrrolo[2,3-b]pyridine-6-carboxamide]
50 to 500 | 1000 to 5000 | – | Cc1ccc(O)c(C)c1-c1cc(C(N)=O)nc2c1c(Cl)cn2C (racemic) [Compound 30, 3-chloro-4-(3-hydroxy-2,6-dimethylphenyl)-1-methyl-1H-pyrrolo[2,3-b]pyridine-6-carboxamide]
500 to 1000 | ≥ 5000 | – | Cc1c(O)cccc1-c1c(N)c(C(N)=O)cn2c(C)nnc12 (racemic) [Compound 51, 7-Amino-8-(3-hydroxy-2-methylphenyl)-3-methyl-[1,2,4]triazolo[4,3-a]pyridine-6-carboxamide]
< 50 | 50 to 500 | – | Cc1c(O)cccc1-c1c(N)c(C(N)=O)nc2c1c(C#N)nn2C (racemic) [Compound 54, 5-Amino-3-cyano-4-(3-hydroxy-2-methylphenyl)-1-methyl-1H-pyrazolo[3,4-b]pyridine-6-carboxamide]
< 50 | – | < 50 | Cc1ccc(O)c(C)c1-c1c(N)c(C(N)=O)nc2c1ncn2C (single isomer, unassigned) [Compound 2, (P)-6-Amino-7-(3-hydroxy-2,6-dimethylphenyl)-3-methyl-3H-imidazo[4,5-b]pyridine-5-carboxamide]
1000 to 5000 | – | ≥ 5000 | Cc1ccc(O)c(C)c1-c1c(N)c(C(N)=O)nc2c1ncn2C (single isomer, unassigned) [Compound 3, (M)-6-amino-7-(3-hydroxy-2,6-dimethylphenyl)-3-methyl-3H-imidazo[4,5-b]pyridine-5-carboxamide]
< 50 | < 50 | – | Cc1c(O)cccc1-c1c(N)c(C(N)=O)nc2c1c(C#N)cn2C (single isomer, unassigned) [Compound 5, (M)-5-Amino-3-cyano-4-(3-hydroxy-2-methylphenyl)-1-methyl-1H-pyrrolo[2,3-b]pyridine-6-carboxamide]
500 to 1000 | – | 50 to 500 | Cc1c(O)cccc1-c1c(N)c(C(N)=O)nc2c1c(C#N)cn2C (single isomer, unassigned) [Compound 6, (P)-5-amino-3-cyano-4-(3-hydroxy-2-methylphenyl)-1-methyl-1H-pyrrolo[2,3-b]pyridine-6-carboxamide]
≥ 5000 | ≥ 5000 | – | Cc1ccc(O)c(C)c1-c1cc(C(N)=O)nc2c1c(C#N)cn2CC(F)(F)F (single isomer, unassigned) [Compound 25]
≥ 5000 | ≥ 5000 | – | Cc1c(O)cccc1-c1c(N)c(C(N)=O)cn2ccnc12 (single isomer, unassigned) [Compound 45]
50 to 500 | ≥ 5000 | – | Cc1c(O)cccc1-c1c(N)c(C(N)=O)cn2c(C)nnc12 (single isomer, unassigned) [Compound 52, (P)-7-Amino-8-(3-hydroxy-2-methylphenyl)-3-methyl-[1,2,4]triazolo[4,3-a]pyridine-6-carboxamide]
≥ 5000 | – | ≥ 5000 | Cc1c(O)cccc1-c1c(N)c(C(N)=O)cn2c(C)nnc12 (single isomer, unassigned) [Compound 53, (M)-7-amino-8-(3-hydroxy-2-methylphenyl)-3-methyl-[1,2,4]triazolo[4,3-a]pyridine-6-carboxamide]
< 50 | – | 50 to 500 | Cc1c(O)cccc1-c1c(N)c(C(N)=O)nc2c1c(C#N)nn2C (single isomer, unassigned) [Compound 58, (M)-5-Amino-3-cyano-4-(3-hydroxy-2-methylphenyl)-1-methyl-1H-pyrazolo[3,4-b]pyridine-6-carboxamide]
1000 to 5000 | – | ≥ 5000 | Cc1c(O)cccc1-c1c(N)c(C(N)=O)nc2c1c(C#N)nn2C (single isomer, unassigned) [Compound 59, (P)-5-amino-3-cyano-4-(3-hydroxy-2-methylphenyl)-1-methyl-1H-pyrazolo[3,4-b]pyridine-6-carboxamide]

Reference: US20260207565A1, “COMPOUNDS THAT INHIBIT PKMYT1” (Exelixis, Inc., priority 2022, published 2026)
